# Columns and labels:
# [1] = target: T1, angiotensin II (AII) receptors, cell surface membrane fraction of guinea pig adrenal gland (Cavia porcellus, UniProt Q9WV26); assay: Test A: displacement of radiolabelled AII binding to adrenal membrane fraction (in vitro); settings: guinea pig adrenal membranes, read-out: IC50 (concentration for 50% displacement of radiolabelled AII binding)
# T1 construct: from tissue; host or cells: guinea pig adrenal gland, cell surface membrane fraction
# T1 sequence (Q9WV26 1-359): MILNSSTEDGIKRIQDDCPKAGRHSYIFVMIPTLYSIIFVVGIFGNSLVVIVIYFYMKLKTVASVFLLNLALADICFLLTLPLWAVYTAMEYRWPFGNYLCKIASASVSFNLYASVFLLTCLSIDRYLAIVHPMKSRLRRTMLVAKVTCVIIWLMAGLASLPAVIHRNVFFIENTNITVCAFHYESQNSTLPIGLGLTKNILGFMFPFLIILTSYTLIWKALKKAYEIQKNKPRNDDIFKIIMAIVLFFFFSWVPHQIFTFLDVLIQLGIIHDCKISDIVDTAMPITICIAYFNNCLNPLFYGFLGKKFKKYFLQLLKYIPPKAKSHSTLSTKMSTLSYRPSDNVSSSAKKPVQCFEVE
# Method: Test A: This in vitro procedure involves the incubation of the test compound initially at a concentration of 100 micromolar (or less) in a buffered mixture containing fixed concentrations of radiolabelled AII and a cell surface membrane fraction prepared from a suitable angiotensin target tissue. In this test, the source of cell surface membranes is the guinea pig adrenal gland which is well known to responsd to AII. Interaction of the radiolabelled AII with its receptors (assessed as radiolabel bound to the particulate membrane fraction following removal of unbound radiolabel by a rapid filtration procedure such as is standard in such studies) is antagonized by compounds which also bind to the membrane receptor sites and the degree of antagonism (observed in the test as displacement of membrane-bound radioactivity) is determined readily by comparing the receptor-bound radioactivity in the presence of the test compound at the specified test concentration with a control value determined in the absence of the test compound. Using this procedure compounds showing at least 50% displacement of radiolabelled AII binding at a concentration of 10^-4 M are retested at lower concentrations to determine their potency. […]
# [2] = system: angiotensin II-induced pressor responses; assay: Test C: antagonism of angiotensin II-induced pressor responses in anaesthetised or conscious rats (in vivo); settings: iv, rat, i.v. administration
# Method: Test C: This in vivo test involves using terminally-anaesthetised or conscious rats in which an arterial catheter has been implanted under anaesthesia for the measurement of changes in blood pressure. The AII antagonistic effects of the test compound following oral or parenteral administration, are assessed against angiotensin II-induced pressor responses. To ensure that the effect is specific, the effect of the test compound on vasopressin-induced pressor responses may also be determined in the same preparation.
compound,measurement,setting,value
"Cc1cc2c(ccc(=O)n2Cc2ccc(-c3ccccc3-c3nnn[nH]3)cc2)c(C)n1.Cl [Example I, 5,7-dimethyl-1[(2'-(1H-tetrazol-5-yl)biphenyl-4-yl)methyl]-1,6-naphthyridin-2(1H)-one hydrochloride]",IC50,[1],8.84 nM
same,ED50,[2],0.048 mg/kg

# From US5217976A, “1,6-naphthyridone derivatives having angiotensin II antagonist activity” (Imperial Chemical Industries PLC, priority 1991, dated 1993)
